Experimental data published in ChEMBL document CHEMBL4145542, “Recent progress in potential anti-hepatitis B virus agents: Structural and pharmacological perspectives” (Eur J Med Chem, 2018).

Assays:
[1] = tested on: Hepatitis B virus; assay: Antiviral activity against HBV infected in human HepDES19 cells assessed as reduction in viral cccDNA level; format: functional, organism-based
[2] = tested on: Hepatitis B virus; assay: Antiviral activity against HBV infected in human HepG2.2.15 cells assessed as reduction in viral DNA level after 8 days by dot-blot hybridization assay; format: functional, organism-based; conditions: HepG2.2.15, 192 h

EC50 [1] [nM]	IC50 [2] [nM]	SMILES
3000		Cc1nc2cc(NC(=O)c3ccc(S(=O)(=O)N(C)Cc4ccccc4)cc3)ccc2s1
10000		O=C(CN(c1cc(C(F)(F)F)ccc1Cl)S(=O)(=O)c1ccccc1)NCc1ccncc1
	53	COC(=O)C1=C(C)NC(c2ncc(F)cc2F)=N[C@H]1c1ccc(F)cc1Cl
